# Test results from ChEMBL document CHEMBL3507680, “University of Dundee, Gates Library screen for HepG2 cell viability”.
# Experiment: Human HepG2 cell viability assay in 384 well format
# Type: toxicity, cell-based
# Parameters: dose 125 nL, time 70.5 hour; concentration not given beside the values
# Settings: HepG2 cells, read-out: Inhibition
row,SMILES,cytotoxicity at 70.5 h
1,Cc1cc(C)c(CNC(=O)NCc2nnc3n2CCCC3)c(=O)[nH]1,-13.4%
2,CCN(CC)c1ccc(CNC(=O)C2(C)CCOCC2)cc1F,14.4%
3,CC(C)c1nc(C2CCCN(c3cnc4ccccc4n3)C2)no1 (stereo not given),-5.55%
4,CCc1noc(CN(C)C(=O)COc2cc(Cl)cc(Cl)c2)n1,1.61%
5,CC(C)c1nc(C2CCCN2c2cnc3cc(F)c(F)cc3n2)no1 (stereo not given),-5.58%
6,O=S1(=O)CCC(N(CCc2ccc3c(c2)CCO3)C2CC2)C1 (stereo not given),-1.96%
7,N#Cc1cccc(S(=O)(=O)NC(=O)COCC(F)(F)F)c1,0.976%
8,CC(=O)NC1CCCN(C(=O)CNc2cccc(C)c2Cl)C1 (stereo not given),21.2%
9,COc1cc(C(=O)NCCc2cccc(C)c2)on1,2.66%
10,COc1ccc(NC(=O)NCc2cccc(N(C)C)n2)c(Cl)c1,-8%
11,CN(C)c1cccc(CNC(=O)Nc2cc(C#N)ccc2Cl)n1,-4.82%
12,CCN(C)C1CCCc2nc(C)sc21 (stereo not given),-5.07%
13,CCC(C)NS(=O)(=O)Cc1cccc(NC(=O)c2cc[nH]c2C)c1 (stereo not given),-5.4%
14,O=C(NCCCn1ccnc1)c1csc2c1CCCC2,15.4%
15,COCCNC(=O)CSc1nnc(OC(C)C)s1,-10.2%
16,CC(C)OCCCNC(=O)CSc1nnc(OC(C)C)s1,-4.19%
17,Cc1ccc(CN2C[C@H](OCC3CCN(C)CC3)[C@H]3COC[C@H]32)o1,4.22%
18,CCN(C(=O)c1nc2c(s1)CCCN2C)C(C)C,-1.08%
19,Cc1cccc(N2CC[C@H]3CO[C@H](CN(C)Cc4ccco4)[C@H]3C2)n1,-2.06%
20,Cc1cccc(S(=O)(=O)N2C[C@@H]3C[C@@H](c4nnc(C)[nH]4)O[C@@H]3C2)c1,-1.93%
21,CN(C)Cc1cncc2c1CCN(CC(=O)N(C)C)C2,10.2%
22,CCc1cnc(N2C[C@@H]3[C@@H](C(=O)N(C)C)CCS(=O)(=O)[C@@H]3C2)nc1,-7.5%

row,SMILES,cytotoxicity at 70.5 h
1,CC(C)CNC(=O)[C@H]1CCS(=O)(=O)[C@@H]2CN(c3ncccn3)C[C@H]12,-10.6%
2,CC(=O)N(C)Cc1ncn2c1CN(C(=O)C1CCCO1)CCC2 (stereo not given),-5.86%
3,CC(=O)N(C)Cc1ncn2c1CN(C(=O)CC1CC1)CCC2,-9.44%
4,O=C([C@@H]1CCS(=O)(=O)[C@@H]2CN(c3ncccn3)C[C@@H]21)N1CCOCC1,-1.98%
5,Cc1nc(N2CCCC2)nc2c1CCN(C(=O)c1ccoc1C)CC2,1.32%
6,Cc1cc(C(=O)N2CCc3nc(N4CCCC4)nc(C)c3CC2)c(C)o1,-7.18%
7,CN(C)CC(=O)N1CCc2sc(C(=O)N3CCOCC3)cc21,-0.909%
8,CN(C)CC(=O)N1CCc2sc(C(=O)N3CCN(C)CC3)cc21,-2.73%
9,c1cc(CN2CC[C@@H]3CN(c4cncnc4)C[C@@H]3C2)ccn1,-6.08%
10,O=C1N(c2ccsc2)CCC12CCCN(c1ccccn1)C2 (stereo not given),5.29%
11,CCc1ncnc2c1CCN(S(=O)(=O)CC)CC2,-7.89%
12,Cc1nc(CN2C[C@@H]3CN(C(=O)c4ccncc4)C[C@@H]3C2)cs1,-9.65%
13,O=C(NCC1CC1)C1CN(C(=O)NC2CCCC2)Cc2cncn2C1 (stereo not given),-6.07%
14,CCOCC(=O)N1CCC2(CC1)CC(c1ccccc1)CO2 (stereo not given),-2.96%
15,CCN(CC)Cc1cc(=O)n2c(n1)CN(C(=O)c1ccc[nH]1)CCC2,-4.87%
16,COCC1CN(S(=O)(=O)c2cccc(F)c2)Cc2nccn2C1 (stereo not given),-7.05%
17,O=c1cc(CN2CCCC2)nc2n1CCCN(CC1CC1)C2,20.8%
18,CC(C)n1c2ccccc2c2c1cc(C(=O)N(C)C)n2C,16.4%
19,CC(C)n1c2ccccc2c2c1cc(C(=O)O)n2C(=O)N(C)C,-2.89%
20,CC(=O)N1CCC2(CCN(CC3CCOC3)C2)CC1 (stereo not given),-1.33%
21,O=C([C@@H]1CCCO1)N1CCOCC2(CCN(Cc3cccnc3)C2)C1 (stereo not given in full),0.333%
22,CC(C)[C@H]1CN(Cc2nccn2C)C[C@@H]1NC(=O)CCS(C)(=O)=O,-5.68%

row,SMILES,cytotoxicity at 70.5 h
1,CCc1cc(N(C)Cc2ccnc(C)c2)n2nc(C)c(C)c2n1,40.9%
2,O=C(CSCC1CC1)N1CCC2(CCCN(C3CCOCC3)C2=O)C1 (stereo not given),-6.7%
3,OCC1(Cc2ccccc2F)CCCN(c2ccc3ccccc3n2)C1 (stereo not given),-1.23%
4,CC(C)c1cc(NC(CO)CO)n2nccc2n1,-10.2%
5,COc1ccc(C2(C(=O)N3CC[C@@]4(O)CCNC[C@H]4C3)CCCC2)cc1,17.8%
6,CCN(Cc1nccs1)Cc1cc(Cl)ccc1OC,2.82%
7,CC(CN1CCCCCC1)NCc1cc(-c2ccco2)on1 (stereo not given),-12.2%
8,CN1CCN(Cc2cnn(-c3ccccc3Cl)c2)[C@H]2CS(=O)(=O)C[C@H]21,-5.22%
9,Cc1noc(C)c1CCCNC(=O)Nc1ccc2c(c1)COC2,7.04%
10,Cc1nc[nH]c1CN1CCN(C(=O)C2CC2)[C@H]2CS(=O)(=O)C[C@H]21,-12.6%
11,Cc1c(C(=O)NCC2CCN(C)C2)n(C)c2c(C)cccc12 (stereo not given),-7.34%
12,Cc1nc(CN2CCN(c3nc4c(s3)c(C)nn4C)CC2)cs1,-3.02%
13,Cc1nn(C)c(C)c1CN(C)c1nc(C2CCCC2)nc2c1cnn2C,8.68%
14,CS(=O)(=O)N1CC[C@@H]2[C@@H](CCC(=O)N2CCC2=CCCCC2)C1,16.1%
15,Cn1ccnc1SCCNC(=O)Cn1cnc2ccccc2c1=O,1.77%
16,Cc1cc2ccccc2n1CCC(=O)NCCS(C)(=O)=O,-10.9%
17,CCC(CO)N(Cc1cccc(O)c1)Cc1ccccc1C (stereo not given),-5.23%
18,O=C(CCn1ccccc1=O)N1CCCC(COc2ccc(F)cc2)C1 (stereo not given),-7.1%
19,CCOc1ccccc1CC(=O)N1C[C@@H](C(=O)O)[C@H](C2CC2)C1,-1.88%
20,CN1CCC(CNC(=O)c2ccc3cccc(Cl)c3n2)C1 (stereo not given),-6.3%
21,CCn1nc(C)c(C(C)NC(=O)c2cnc(N(C)C)nc2C)c1C (stereo not given),1.08%
22,CCN(C)C[C@@H]1CN(C(=O)c2cc(-c3ccc(F)cc3)n[nH]2)C[C@@H]1CO,-4.68%

row,SMILES,cytotoxicity at 70.5 h
1,CC(C)[C@@H]1CN(C(=O)NCc2ccco2)C[C@H]1N(C)C,-5.48%
2,CN(CCO)C[C@@H]1CN(C2CCN(c3ccccc3Cl)CC2)C[C@@H]1CO,-10.1%
3,CCOc1ccc(Cl)cc1C(C(=O)O)N1CCOCC1 (stereo not given),-4.12%
4,CC(C)c1cc(NCC2(N(C)C)CCCC2)ncn1,-2.85%
5,CN(C)CCNC(=O)CCC1CCN(C(=O)c2ccc(Cl)cc2O)CC1,-8.44%
6,COc1ccc(C(=O)N2CCC(Oc3cccc(C)c3)(C(=O)O)CC2)o1,5.99%
7,COc1cccc(CN(C)C(C)c2ccon2)c1OCCn1ccnc1 (stereo not given),-19.9%
8,Cc1cccn2c(CC(=O)N3CCC(CCn4cccn4)CC3)cnc12,13.1%
9,COCCN(C)C(C(=O)O)c1ccc(Cl)c(F)c1 (stereo not given),-5.39%
10,Cc1nn(C)c2nc(N3CCC(C(O)c4ccccn4)CC3)sc12 (stereo not given),-0.933%
11,Cn1cc(C(=O)NCc2cncc3c2CCNC3)cn1,23.2%
12,CC(C)N(C)Cc1cncc2c1CCN(Cc1cccs1)C2,-3.46%
13,COCCN1CCOCC2(C1)CN(C(=O)c1conc1C)CCO2 (stereo not given),-1.78%
14,CCN1C(=O)CCCC12CCCN(C(=O)c1ccncc1F)C2 (stereo not given),-2.27%
15,c1cnc(N2CC[C@@H](OCC3CC3)[C@@H]2Cc2cccnc2)nc1,-4.73%
16,Cn1ccc(C(=O)N2CCOC3(COCCN(CC4CC4)C3)C2)n1 (stereo not given),-3.98%
17,CCOC(=O)[C@]12CCCN(Cc3ccco3)C[C@H]1CN(S(C)(=O)=O)C2,-4.24%
18,CC1c2ncc(Cn3cccn3)n2CCN1S(C)(=O)=O (stereo not given),19.8%
19,O=S(=O)(c1cccs1)N1Cc2nc(CN3CCCC3)oc2C1,-6.48%
20,CCN(CC)Cc1nc2c(o1)CN(S(=O)(=O)c1cccs1)C2,-10.4%
21,N#Cc1ccc(N2CCCC3(CCC(=O)N3CC3CC3)CC2)nc1 (stereo not given),-0.642%
22,O=C(NCc1cc(=O)n2c(n1)CN(CC1CC1)CCC2)c1ccsc1,17.3%

row,SMILES,cytotoxicity at 70.5 h
1,O=C(C1CCOC1)N1C[C@H]2CN(Cc3cccnc3)C(=O)[C@H]2C1 (stereo not given in full),11.7%
2,Cc1nc(N2CCCC2)nc2c1CCN(Cc1nccn1C)CC2,-10.2%
3,Cc1cc(CN2CCC3(CC2)COC(COCC2CC2)C3)no1 (stereo not given),-9.77%
4,COCCN1CCCn2c(nc(CNS(C)(=O)=O)cc2=O)C1,-6.97%
5,COCCN1CCC(c2nc3ccc(NC4CCC4)cn3n2)CC1,0.236%
6,O=C(Cc1ccncc1)N1CCC2(CC1)CC(c1ccccc1)CO2 (stereo not given),19.4%
7,CCS(=O)(=O)N1CCC2(CC1)CN(CC1CCOC1)c1ccccc12 (stereo not given),26%
8,c1ccc2c(c1)N(CC1CCOC1)CC21CCN(c2cnccn2)CC1 (stereo not given),-0.723%
9,Cc1noc(C)c1CN1CCc2ncnc(-c3cnn(C)c3)c2CC1,-8.16%
10,c1cncc(OC[C@@]23CCC[C@@H]2CN(C2CCOCC2)C3)c1,-1.53%
11,CCN(CC)Cc1cn2c(n1)CN(Cc1c(C)noc1C)CC2,0.0103%
12,Cc1noc(C)c1CN1CCn2cc(CN3CCCC3)nc2C1,-4.15%
13,Cn1cc(CN2CCc3ccc(=O)n(Cc4ccncc4)c3CC2)cn1,-7%
14,CN(C)CCN1C(=O)CCCC12CCCN(C(=O)c1ccncc1)C2 (stereo not given),-3.49%
15,c1cncc(OC[C@]23COC[C@H]2CN(C2CCC2)C3)c1,-1.17%
16,N#Cc1ccc(N2CCC3(CCC(=O)N3Cc3cccnc3)CC2)nc1,-5.74%
17,N#Cc1ccc(N2CCC3(CCC(=O)N3Cc3ccncc3)CC2)nc1,-6.82%
18,CC(C)N1CCC2(CC1)C(=O)N(CCN(C)C)c1ccccc12,-6.47%
19,COCCN1CCO[C@H]2CN(Cc3cc[nH]n3)C[C@H]21,-7.3%
20,COCCN1CCN(c2cccc(C)n2)Cc2ccc(C)nc21,2.66%
21,Cc1nc(CN2C[C@@H]3CN(C(=O)Cc4ccccn4)C[C@@H]3C2)cs1,-4.03%
22,Cn1nccc1-c1nnn2c1COCC(CNCC1CC1)C2 (stereo not given),-2.84%
